The values that follow come from US20230365572A1, “HYDROXYLBENZYL AZABICYCLO[2.2.1]HEPTAN-1-ANE DRIVATIVES AND MEDICAL USES THEREOF” (ATROGI AB, priority 2020, published 2023).

What all share (type): cell-based
Test [1] has as its system L6-myotubes. Put plainly: Glucose uptake in differentiated L6-myotubes (3H-2-deoxy-glucose). The following applies: read-out: Biological example 1: glucose uptake, activity compared to that of isoproterenol. The method, then:
L6-myoblasts were grown in Dulbecco's Modified Eagle's Medium (DMEM) containing 4.5 g/l glucose supplemented with 10% fetal bovine serum, 2 mM L-Glutamine, 50 U/ml penicillin, 50 1.1g/ml streptomycin and 10 mM HEPES. Cells were plated at 1×10^5 cells per ml in 24-well plates. After reaching 90% confluence the cells were grown in medium containing 2% FBS for 7 days where upon cells differentiated into myotubes. Differentiated L6-myotubes were serum-starved over night in medium containing 0.5% fatty-acid free BSA and stimulated with agonist, final concentration 1×10^−5. After 1 h 40 min cells were washed with warm, glucose free medium or PBS and another portion of agonist was added to glucose free medium. After 20 min the cells were exposed to 50 nM ^3H-2-deoxy-glucose for another 10 min before washed in ice cold glucose free medium or PBS and lysed in 0.2 M NaOH for 1 h in 60° C.

Test [2] has as its system Intracellular cAMP levels. Put plainly: Measurement of intracellular cAMP levels in differentiated L6 cells (alpha screen cAMP kit). The following applies: Rattus norvegicus, L6, 0.25 h, read-out: Biological example 2: intracellular cAMP levels, activity compared to that of isoproterenol. The method, then: L6-myoblasts were grown in Dulbecco's Modified Eagle's Medium (DMEM) containing 4.5 g/l glucose supplemented with 10% fetal bovine serum, 2 mM L-Glutamine, 50 U/ml penicillin, 50 1.1g/ml streptomycin and 10 mM HEPES. Cells were plated at 1×10^5 cells per ml in 24-well plates. After reaching 90% confluence the cells were grown in medium containing 2% FBS for 7 days where upon cells differentiated into myotubes. Differentiated cells were serum-starved over night and stimulated with agonist, final concentration 1×10^−5 M, for 15 min in stimulation buffer (HBSS supplemented with 1% BSA, 5 mM HEPES and 1 mM IBMX, pH 7,4) The medium was then aspirated and to end the reaction 100 μL of 95% EtOH was added to each well of a 24-well plate and cells were kept in […] over night. The EtOH was let to evaporate and 5001 μof lysis buffer (1% BSA, 5 mM HEPES and 0.3% Tween-20, pH 7,4) was added to each well before put in −80° C. for 30 min and then kept in −20° C. Intracellular cAMP levels were detected using an alpha screen cAMP kit (6760635D from Perkin Elmer). The activity for each compound is compared to that of isoproterenol.
On the technique in general: Cyclic AMP is a second messenger, typically raised through Gs and lowered through Gi signalling.

For test [3], the system named is L6-myotubes. Put plainly: Glucose uptake in L6-myotubes in the presence of the β2-antagonist ICI-118,551. The following applies: differentiated L6-myotubes, ICI-118,551 1×10^−5 M, compound 1×10^−5 M. The method, then:
L6-myoblasts were grown in Dulbecco's Modified Eagle's Medium (DMEM) containing 4.5 g/l glucose supplemented with 10% fetal bovine serum, 2 mM L-Glutamine, 50 U/ml penicillin, 50 1.1g/ml streptomycin and 10 mM HEPES. Cells were plated at 1×10^5 cells per ml in 24-well plates. After reaching 90% confluence the cells were grown in medium containing 2% FBS for 7 days where upon cells differentiated into myotubes. Differentiated L6-myotubes were serum-starved overnight in medium containing 0.5% fatty-acid free BSA and were incubated with the β2-adrenergic receptor antagonist ICI-118,551 at a final concentration of 1×10^−5 M for 30 min. The cells were stimulated with a compound of the invention, at a final concentration of 1×10^−5 M. After 1 h 40 min the cells were washed twice with warm, glucose free medium or PBS and additional portions of the compound of the invention and the antagonist were added. After 20 min the cells were exposed to 50 nM ^3H-2-deoxyglucose for 10 min before washed with ice cold glucose free medium or PBS three times and lysed with 0.2 M NaOH, 400 μL/well, for 1 h at 60° C. The cell lysate was mixed with 4 mL scintillation buffer (Emulsifier Safe, Perkin Elmer) and the radioactivity was detected in a β-counter (Tri-Carb 4810TR, Perkin Elmer). The activity for each compound is compared to that of isoproterenol.

The mark [4] stands for this setting: differentiated L6-myotubes, agonist final concentration 1×10^−5, 3H-2-deoxy-glucose uptake.
[5] abbreviates: differentiated cells, agonist final concentration 1×10^−5 M, 15 min.

Structures can show the parent of a compound that is named as a salt. Where two headings read alike, the source gives them in different places.

For the molecule `CC12CCC([C@@H](O)c3cncc(F)c3)(CC1)N2` [Example 10, (S)-(3-fluoropyridin-4-yl)(4-methyl-7-azabicydo[2.2.1]heptan-1-yl)-methanol], the Emax at 10 µM is 50 to 75% with L6-myotubes [1] (setting [4]) and less than 25% in test [2] (setting [5]).
`CC12CCC([C@@H](O)c3ccccc3Cl)(CC1)N2` [Example 8, (5)-(2-Chlorophenyl)(4-methyl-7-azabicyclo[2.2.1]heptan-1-yl)methanol hydrochloride]: the Emax at 10 µM was 25 to 50% in the test with L6-myotubes [1] (setting [4]) and less than 25% in test [2] (setting [5]).
The matching figures for `CC12CCC([C@@H](O)c3cccc(Cl)c3)(CC1)N2` [Example 6, (S)-(3-Chlorophenyl)(4-methyl-7-azabicyclo[2.2.1]heptan-1-yl)methanol hydrochloride]: 25 to 50% and less than 25%.
The matching figures for `CC12CCC([C@H](O)c3ccccc3F)(CC1)N2` [Example 3, (R)-(2-Fluorophenyl)(4-methyl-7-azabicyclo[2.2.1]heptan-1-yl)methanol hydrochloride]: 50 to 75% and less than 25%.
Taken in the same sequence, the figures for `O[C@H](c1cccc(F)c1)C12CCC(COc3ccc(Cl)cc3)(CC1)N2` [Example 18, (R)-(4-((4-Chlorophenoxy)methyl)-7-azabicyclo[2.2.1]heptan-1-yl) (3-fluorophenyl)methanol] were more than 75% and less than 25%.
As to `COCC12CCC([C@H](O)c3cccc(F)c3)(CC1)N2` [Example 16, (R)-(3-Fluorophenyl)(4-(methoxymethyl)-7-azabicyclo[2.2.1]heptan-1-yl)methanol hydrochloride], in the test with L6-myotubes [3], the “Biological example 3: glucose uptake in the presence of the β2-antagonist ICI-118,551, activity compared to that of isoproterenol” value was “− (if it less than 25% it is denoted with)”. Further, the results for the Emax at 10 µM (in the test on L6-myotubes [1]; in test [2]) were more than 75% and less than 25%, respectively.
On to `CC12CCC([C@H](O)c3ccncc3F)(CC1)N2` [Example 11, (R)-(3-Fluoropyridin-4-yl)(4-methyl-7-azabicyclo[2.2.1]heptan-1-yl)-methanol], for which the Emax at 10 µM (in the test with L6-myotubes [1] (setting [4]); in test [2] (setting [5])) was less than 25% each time.
As for `CC12CCC([C@H](O)c3cccc(F)c3)(CC1)N2` [Example 1, (R)-(3-Fluorophenyl)(4-methyl-7-azabicyclo[2.2.1]heptan-1-yl)methanol hydrochloride], in the test with L6-myotubes [3], the “Biological example 3: glucose uptake in the presence of the β2-antagonist ICI-118,551, activity compared to that of isoproterenol” value is “− (if it less than 25% it is denoted with)”. The Emax at 10 µM with L6-myotubes [1] (setting [4]) was more than 75%; in test [2] (setting [5]), less than 25%.
Consider `CCCC12CCC([C@H](O)c3cccc(F)c3)(CC1)N2` [Example 13, (R)-(3-Fluorophenyl)(4-propyl-7-azabicyclo[2.2.1]heptan-1-yl)methanol hydrochloride], for which the Emax at 10 µM with L6-myotubes [1] (setting [4]) is 50 to 75%; in test [2] (setting [5]), 25 to 50%.
Taken in the same sequence, the figures for `CC12CCC([C@@H](O)c3ccccc3F)(CC1)N2` [Example 4, (S)-(2-Fluorophenyl)(4-methyl-7-azabicyclo[2.2.1]heptan-1-yl)methanol hydrochloride] were 25 to 50% and less than 25%.
Taken in the same sequence, the figures for `CC12CCC([C@H](O)c3cncc(F)c3)(CC1)N2` [Example 9, (R)-(3-fluoropyridin-4-yl)(4-methyl-7-azabicydo[2.2.1]heptan-1-yl)-methanol] were more than 75% and less than 25%.
Taken in the same sequence, the figures for `CC12CCC([C@H](O)c3cccc(Cl)c3)(CC1)N2` [Example 5, (R)-(3-Chlorophenyl)(4-methyl-7-azabicyclo[2.2.1]heptan-1-yl)methanol hydrochloride] were more than 75% and less than 25%.
As to `CCCC12CCC([C@@H](O)c3cccc(F)c3)(CC1)N2` [Example 14, (S)-(3-Fluorophenyl)(4-propyl-7-azabicyclo[2.2.1]heptan-1-yl)methanol hydrochloride], the Emax at 10 µM (in the test on L6-myotubes [1] (setting [4]); in test [2] (setting [5])) was less than 25% each time.
Consider `CC12CCC([C@H](O)c3ccccc3Cl)(CC1)N2` [Example 7, (R)-(2-Chlorophenyl)(4-methyl-7-azabicyclo[2.2.1]heptan-1-yl)methanol hydrochloride], for which the Emax at 10 µM in the test on L6-myotubes [1] (setting [4]) is more than 75%; in test [2] (setting [5]) it was less than 25%.
The matching figures for `CC12CCC([C@@H](O)c3ccncc3F)(CC1)N2` [Example 12, (S)-(3-Fluoropyridin-4-yl)(4-methyl-7-azabicydo[2.2.1]heptan-1-yl)-methanol]: less than 25% and less than 25%.
Take `COCC12CCC([C@@H](O)c3cccc(F)c3)(CC1)N2` [Example 15, (S)-(3-Fluorophenyl)(4-(methoxymethyl)-7-azabicyclo[2.2.1]heptan-1-yl)methanol hydrochloride]: the Emax at 10 µM was 50 to 75% with L6-myotubes [1] and less than 25% in test [2].
For the molecule `CC12CCC([C@@H](O)c3cccc(F)c3)(CC1)N2` [Example 2, (S)-(3-Fluorophenyl)(4-methyl-7-azabicyclo[2.2.1]heptan-1-yl)methanol hydrochloride], the “Biological example 3: glucose uptake in the presence of the β2-antagonist ICI-118,551, activity compared to that of isoproterenol” value with L6-myotubes [3] is “− (if it less than 25% it is denoted with)”. Further, the Emax at 10 µM was more than 75% with L6-myotubes [1] (setting [4]) and less than 25% in test [2] (setting [5]).
In the case of `O[C@@H](c1cccc(F)c1)C12CCC(COc3ccc(Cl)cc3)(CC1)N2` [Example 17, (S)-(4-((4-Chlorophenoxy)methyl)-7-azabicyclo[2.2.1]heptan-1-yl)(3-fluorophenyl)methanol], the Emax at 10 µM with L6-myotubes [1] (setting [4]) is 50 to 75%; in test [2] (setting [5]), less than 25%.
